In article PMC10721329, “Quisinostat is a brain-penetrant radiosensitizer in glioblastoma” (JCI Insight, 2023):

What was measured:
GB126 cells = experiment: γ-H2AX foci immunofluorescence; type: cell-based, human; details: 86 nM QST, value per individual nucleus, image series of replicate experiments
Method: (§1) To test the DNA-damaging effects of QST in GBM cells, we treated 2 independent GSC lines with QST for 72 hours at the IC50 and analyzed changes in the levels of phosphorylated histone H2AX (γ-H2AX), a marker for DNA double-strand breaks (DSBs) ([27]). […]
(§2) anti-GAPDH (1:1000, Cell Signaling Technologies, 97166), rabbit anti-cleaved poly (ADP-ribose) polymerase Asp 214 (1:1000, Cell Signaling, 9541), rabbit anti-BDNF (1:1000, Abcam, ab108319) and mouse anti- β-actin (1:1000, Bio-Rad, MCA5775GA). Membranes were probed with fluorophore-conjugated anti-mouse or anti-rabbit secondary antibodies (1:10,000; ThermoFisher Scientific). Western blots were developed using the LI-COR Odyssey CLx imaging system (LI-COR) and quantitated using the Image Studio Lite software. All Western blots are representative images from a minimum of 3 biological replicates.
(§3) Cells were grown as adherent cultures on laminin -coated glass coverslips (Thermo Fisher Scientific) in GSC media. Twenty-four hours after plating, the cells were treated with QST or DMSO diluted in GSC media. Seventy-two hours after treatment, cells were fixed with 4% paraformaldehyde for 13 minutes at room temperature. Cells were washed with phosphate-buffered saline (PBS) and subsequently permeabilized and blocked with 5% normal goat serum (Sigma Aldrich) and 0.2% Triton X -100 in PBS (blocking solution) for 30 minutes at room temperature. […]
(§4) SuperFrost Plus microscope slides using Fluoroshield Mounting Medium containing DAPI (Abcam). […] The fraction of Ki67- and Cleaved Caspase 3– positive cells were counted from 5 independent images from each condition. The mean and standard deviation were calculated from 3 biological replicates for all control and QST-treated […]
(§5) For cell cycle analysis following short -term DMSO or QST treatment in GSC cultures, approximately 1 million cells were harvested, washed in cold 1× PBS once, and fixed with 3–4 mL of ice cold 70% ethanol, added dropwise while vortexing. […] Data from all the samples were obtained using a Fortessa flow cytometer (BD Biosciences) and analyzed using the FlowJo software (TreeStar). […]

BT145 cells = experiment: γ-H2AX foci immunofluorescence; type: cell-based, human; details: BT 145, 75 nM QST, single nuclei
Method: as §1, §2, §3, §4, §5

Cn1cc(CNCC2CCN(c3ncc(C(=O)NO)cn3)CC2)c2ccccc21 [QST, quisinostat]
12: Number of foci/ Nucleus (γH2AX) (GB126 cells) | Number of foci/ Nucleus (ƴH2AX) (BT145 cells) | ƴH2AX Number of foci/ Nucleus (BT145 cells; replicates n=1 to n=3)
